Test results: ChEMBL document CHEMBL3390836, “Mannich- and LedererManasse-based analogues of the natural product S-(+)-curcuphenol as cancer proliferation and migration inhibitors” (Medchemcomm, 2012)

How the values were obtained:
Type in all cases: functional
[1] = Cytotoxicity against human SKOV3 cells assessed as cell growth at 10^-6 M after 48 hrs by SRB assay relative to control; settings: SK-OV-3, 48 h, read-out: Activity
[2] = system: NCI-H226; assay: Cytotoxicity against human NCI-H226 cells assessed as cell growth at 10^-6 M after 48 hrs by SRB assay relative to control; settings: NCI-H226, 48 h, read-out: Activity
[3] = system: SW-620; assay: Cytotoxicity against human SW620 cells assessed as cell growth at 10^-8 M after 48 hrs by SRB assay relative to control; settings: SW-620, 48 h, read-out: Activity
[4] = system: HL-60(TB); assay: Cytotoxicity against human HL-60(TB) cells assessed as cell growth at 10^-8 M after 48 hrs by SRB assay relative to control; settings: HL-60, 48 h, read-out: Activity
[5] = system: CAKI-1; assay: Cytotoxicity against human Caki1 cells assessed as cell growth at 10^-7 M after 48 hrs by SRB assay relative to control; settings: CAKI-1, 48 h, read-out: Activity
[6] = system: HCC 2998; assay: Cytotoxicity against human HCC2998 cells assessed as cell growth at 10^-8 M after 48 hrs by SRB assay relative to control; settings: HCC 2998, 48 h, read-out: Activity
[7] = system: SK-MEL-28; assay: Cytotoxicity against human SK-MEL-28 cells assessed as cell growth at 10^-6 M after 48 hrs by SRB assay relative to control; settings: SK-MEL-28, 48 h, read-out: Activity
[8] = system: 786-0; assay: Cytotoxicity against human 786-0 cells assessed as cell growth at 10^-7 M after 48 hrs by SRB assay relative to control; settings: 786-0, 48 h, read-out: Activity
[9] = system: MCF7; assay: Cytotoxicity against human MCF7 cells after 48 hrs by SRB assay; settings: MCF7, 48 h
[10] = system: MDA-MB-435; assay: Cytotoxicity against human MDA-MB-435 cells assessed as cell growth at 10^-6 M after 48 hrs by SRB assay relative to control; settings: MDA-MB-435, 48 h, read-out: Activity
[11] = system: HT-29; assay: Cytotoxicity against human HT-29 cells assessed as cell growth at 10^-6 M after 48 hrs by SRB assay relative to control; settings: HT-29, 48 h, read-out: Activity
[12] = system: SF-268; assay: Cytotoxicity against human SF268 cells assessed as cell growth at 10^-8 M after 48 hrs by SRB assay relative to control; settings: SF-268, 48 h, read-out: Activity
[13] = Cytotoxicity against human NCI-ADR-RES cells after 48 hrs by SRB assay
[14] = system: MOLT-4; assay: Cytotoxicity against human MOLT4 cells after 48 hrs by SRB assay; settings: MOLT-4, 48 h
[15] = system: NCI-H322M; assay: Cytotoxicity against human NCI-H322M cells assessed as cell growth at 10^-4 M after 48 hrs by SRB assay relative to control; settings: read-out: Activity
[16] = system: T47D; assay: Cytotoxicity against human T47D cells assessed as cell growth at 10^-4 M after 48 hrs by SRB assay relative to control; settings: read-out: Activity
[17] = system: SK-MEL-28; assay: Cytotoxicity against human SK-MEL-28 cells after 48 hrs by SRB assay; settings: SK-MEL-28, 48 h
[18] = system: 786-0; assay: Cytotoxicity against human 786-0 cells assessed as cell growth at 10^-6 M after 48 hrs by SRB assay relative to control; settings: 786-0, 48 h, read-out: Activity
[19] = system: NCI-H226; assay: Cytotoxicity against human NCI-H226 cells assessed as cell growth at 10^-4 M after 48 hrs by SRB assay relative to control; settings: NCI-H226, 48 h, read-out: Activity
[20] = system: IGROV-1; assay: Cytotoxicity against human IGROV1 cells after 48 hrs by SRB assay; settings: IGROV-1, 48 h
[21] = system: HL-60(TB); assay: Cytotoxicity against human HL-60(TB) cells assessed as cell growth at 10^-6 M after 48 hrs by SRB assay relative to control; settings: HL-60, 48 h, read-out: Activity
[22] = system: RXF 393; assay: Cytotoxicity against human RXF393 cells assessed as cell growth at 10^-7 M after 48 hrs by SRB assay relative to control; settings: RXF 393, 48 h, read-out: Activity
[23] = system: NCI-H460; assay: Cytotoxicity against human NCI-H460 cells assessed as cell growth at 10^-7 M after 48 hrs by SRB assay relative to control; settings: NCI-H460, 48 h, read-out: Activity
[24] = system: HCC 2998; assay: Cytotoxicity against human HCC2998 cells assessed as cell growth at 10^-4 M after 48 hrs by SRB assay relative to control; settings: HCC 2998, 48 h, read-out: Activity
[25] = system: HL-60(TB); assay: Cytotoxicity against human HL-60(TB) cells assessed as cell growth at 10^-7 M after 48 hrs by SRB assay relative to control; settings: HL-60, 48 h, read-out: Activity
[26] = system: NCI-H322M; assay: Cytotoxicity against human NCI-H322M cells assessed as cell growth at 10^-7 M after 48 hrs by SRB assay relative to control; settings: read-out: Activity
[27] = system: IGROV-1; assay: Cytotoxicity against human IGROV1 cells assessed as cell growth at 10^-4 M after 48 hrs by SRB assay relative to control; settings: IGROV-1, 48 h, read-out: Activity
[28] = system: TK-10; assay: Cytotoxicity against human TK10 cells assessed as cell growth at 10^-8 M after 48 hrs by SRB assay relative to control; settings: TK-10, 48 h, read-out: Activity
[29] = system: HCC 2998; assay: Cytotoxicity against human HCC2998 cells assessed as cell growth at 10^-6 M after 48 hrs by SRB assay relative to control; settings: HCC 2998, 48 h, read-out: Activity
[30] = system: T47D; assay: Cytotoxicity against human T47D cells assessed as cell growth at 10^-7 M after 48 hrs by SRB assay relative to control; settings: read-out: Activity
[31] = Cytotoxicity against human HCT116 cells after 48 hrs by SRB assay; settings: HCT-116, 48 h
[32] = Cytotoxicity against human OVCAR4 cells after 48 hrs by SRB assay; settings: OVCAR-4, 48 h
[33] = system: LOX IMVI; assay: Cytotoxicity against human LOXIMVI cells assessed as cell growth at 10^-8 M after 48 hrs by SRB assay relative to control; settings: read-out: Activity
[34] = Cytotoxicity against human EKVX cells assessed as cell growth at 10^-8 M after 48 hrs by SRB assay relative to control; settings: read-out: Activity
[35] = system: MOLT-4; assay: Cytotoxicity against human MOLT4 cells assessed as cell growth at 10^-7 M after 48 hrs by SRB assay relative to control; settings: MOLT-4, 48 h, read-out: Activity
[36] = Cytotoxicity against human OVCAR4 cells assessed as cell growth at 10^-6 M after 48 hrs by SRB assay relative to control; settings: OVCAR-4, 48 h, read-out: Activity
[37] = read-out: LC50 (the source's name)

SMILES: CC(C)=CCC[C@H](C)c1ccc(C)c(CNCC2CCNCC2)c1O
- growth at 1 µM [1]: 104%
- growth at 1 µM [2]: 86%
- growth at 0.01 µM [3]: 100%
- growth at 0.01 µM [4]: 86%
- growth at 0.1 µM [5]: 94%
- growth at 0.01 µM [6]: 101%
- growth at 1 µM [7]: 98%
- growth at 0.1 µM [8]: 87%
- GI50 [9]: 4.5 µM
- TGI [9]: 8.34 µM
- CC50 [9, 37]: 15.5 µM
- growth at 1 µM [10]: 92%
- growth at 1 µM [11]: 113%
- growth at 0.01 µM [12]: 97%
- GI50 [13]: 19.8 µM
- LC50 (lethal concentration, 50% cell kill) [13]: > 25 µM
- TGI [13]: > 25 µM
- LC50 [14]: > 25 µM
- growth at 100 µM [15]: 13%
- growth at 100 µM [16]: -73%
- GI50 [17]: 4.2 µM
- TGI [17]: 7.89 µM
- CC50 [17, 37]: 14.8 µM
- growth at 1 µM [18]: 85%
- growth at 100 µM [19]: 37%
- GI50 [20]: 9.4 µM
- LC50 (concentration killing 50% of cells) [20]: > 25 µM
- TGI [20]: > 25 µM
- growth at 1 µM [21]: 88%
- growth at 0.1 µM [22]: 85%
- growth at 0.1 µM [23]: 98%
- growth at 100 µM [24]: -94%
- growth at 0.1 µM [25]: 101%
- growth at 0.1 µM [26]: 94%
- growth at 100 µM [27]: 24%
- growth at 0.01 µM [28]: 92%
- growth at 1 µM [29]: 99%
- growth at 0.1 µM [30]: 100%
- GI50 [31]: 5.08 µM
- TGI [31]: 12.4 µM
- CC50 [31, 37]: > 25 µM
- GI50 [32]: 18.2 µM
- LC50 [32]: > 25 µM
- TGI [32]: > 25 µM
- growth at 0.01 µM [33]: 95%
- growth at 0.01 µM [34]: 99%
- growth at 0.1 µM [35]: 96%
- growth at 1 µM [36]: 101%
